Assays:
[1] = in vitro; conditions: human, Caco-2
[2] = in vitro; conditions: rat, liver microsomes

Row | half-life at 0.1 µM [2] | Compound | Papp A→B at 10 µM [1]
1 |  | CNC(=C[N+](=O)[O-])NCCSCc1ccc(CN(C)C)o1 [RANITIDINE] | 0.3 ×10⁻⁶ cm/s
2 | > 1 h | CC(C)NCC(O)COc1cccc2ccccc12 (configuration not stated) [PROPRANOLOL] | 

Reference: ChEMBL document CHEMBL5352494, “Hybrid molecules combining GABA-A and serotonin 5-HT6 receptors activity designed to tackle neuroinflammation associated with depression” (Eur J Med Chem, 2023)
